# Laboratory results as given in patent US20100292217A1, “RANOLAZINE FOR THE TREATMENT OF CNS DISORDERS” (Gilead Palo Alto, Inc., priority 2009, published 2010).
# Like-named read-outs stand apart in the source and are kept apart here.
# Tests used:
# WT-Nav1.1 = target: T1, WT-Nav1.1 (Homo sapiens, UniProt P35498); experiment: Whole-cell voltage-clamp of WT-Nav1.1 expressed heterologously in tsA201 cells; format: cell-based
# T1 construct: expressed in transfected cells; host or cells: tsA201 cells, transient transfection
# Nav1.1 R1648H = target: T2, Nav1.1 R1648H (Homo sapiens, UniProt P35498, R1648H); experiment: Whole-cell voltage-clamp of mutant Nav1.1 R1648H (GEFS+); format: cell-based
# T2 construct: expressed in transfected cells; host or cells: tsA201 cells (named for WT; same transient transfection method for mutants)
# [1] = test system: Nav1.1 mutant channels (R1648H, T875M, R1648C, F1661S, L263V, Q1489K); experiment: Whole-cell voltage-clamp of panel of Nav1.1 mutant channels (GEFS+, SMEI, FHM3); format: cell-based, Human
# [2] = Brain penetration in rats after continuous intravenous infusion (LC-MS/MS); format: in vivo, Sprague Dawley rats; conditions: for concentration at 1 h / concentration at 2.5 h / concentration at 5 h: 85.5 μg/kg/min
# Protocol: Jugular vein cannulated male Sprague Dawley rats (250-350 g, Charles River Laboratories, Hollister, Calif.) were used to study brain penetration of ranolazine in vivo. Animal use was approved by the Institutional Animal Care and Use Committee, Gilead Sciences. Three rats per group were infused intravenously with ranolazine in saline at 85.5 μg/kg/min. After 1, 2.5 or 5 h animals were sacrificed for plasma and brain collection, and ranolazine concentrations were measured by liquid chromatography coupled with tandem mass spectrometry (LC-MS/MS). Brain tissue was homogenated in 1% 2N HCl acidified 5% sodium fluoride (final homogenate was diluted 3-fold). Plasma and brain homogenate samples (50 μl) were precipitated along with deuterated D3-ranolazine as an internal standard, vortexed and centrifuged. The supernatant (50 μL) was transferred and diluted with water (450 μl) prior to injection (10 μl). High performance liquid chromatography was performed using a Shimadzu LC-10AD liquid chromatograph and a Luna C18(2), 3 μm, 20×2.0 mm column with a mobile phase consisting of water containing 0.1% formic acid (solution A) and acetonitrile (solution B) carried out under isocratic conditions (75% solution A, 25% solution B; flow rate 0.300 ml/min). Mass spectrometric analyses were performed using an API3000 mass spectrometer (Applied Biosystems, Foster City, Calif.) operating in positive ion mode with MRM transition 428.1>98. Brain-to-plasma ranolazine ratios were calculated for each sample as ng ranolazine/g brain divided by ng ranolazine/ml plasma.
# WT-Nav1.2 = target: T3, WT-Nav1.2 (Homo sapiens, UniProt Q99250); experiment: Whole-cell voltage-clamp of WT-Nav1.2 stably transfected in CHO cells; format: cell-based; conditions: Example 2; methods in present tense, no data given
# T3 construct: expressed in transfected cells
# Nav1.4 = conditions: inverse sodium gradient, Wang et al. 2008; cited from earlier work
# [3] = Sicouri 2008; Chaitman 2006; cited from earlier work
# [4] = target: cardiac voltage-gated potassium channel HERG (Homo sapiens, UniProt Q12809); conditions: accounts for mild QT interval prolongation in some subjects; cited from earlier work
# [5] = usual clinical dosages; minority with mild dizziness, nausea, headache, constipation; cited from earlier work
# [6] = 3 μM ranolazine, pulse trains 10-135 Hz
# [7] = pulse 300 of 10 Hz train, read-out: Use-Dependent Block of Peak Current IC50
# [8] = read-out: Tonic Block of Peak Current IC50
# [9] = read-out: Tonic Block of Persistent Current IC50
# [10] = summary statement, persistent current evoked by SCN1A mutations, channel not specified
# T3 sequence (Q99250 whole entry): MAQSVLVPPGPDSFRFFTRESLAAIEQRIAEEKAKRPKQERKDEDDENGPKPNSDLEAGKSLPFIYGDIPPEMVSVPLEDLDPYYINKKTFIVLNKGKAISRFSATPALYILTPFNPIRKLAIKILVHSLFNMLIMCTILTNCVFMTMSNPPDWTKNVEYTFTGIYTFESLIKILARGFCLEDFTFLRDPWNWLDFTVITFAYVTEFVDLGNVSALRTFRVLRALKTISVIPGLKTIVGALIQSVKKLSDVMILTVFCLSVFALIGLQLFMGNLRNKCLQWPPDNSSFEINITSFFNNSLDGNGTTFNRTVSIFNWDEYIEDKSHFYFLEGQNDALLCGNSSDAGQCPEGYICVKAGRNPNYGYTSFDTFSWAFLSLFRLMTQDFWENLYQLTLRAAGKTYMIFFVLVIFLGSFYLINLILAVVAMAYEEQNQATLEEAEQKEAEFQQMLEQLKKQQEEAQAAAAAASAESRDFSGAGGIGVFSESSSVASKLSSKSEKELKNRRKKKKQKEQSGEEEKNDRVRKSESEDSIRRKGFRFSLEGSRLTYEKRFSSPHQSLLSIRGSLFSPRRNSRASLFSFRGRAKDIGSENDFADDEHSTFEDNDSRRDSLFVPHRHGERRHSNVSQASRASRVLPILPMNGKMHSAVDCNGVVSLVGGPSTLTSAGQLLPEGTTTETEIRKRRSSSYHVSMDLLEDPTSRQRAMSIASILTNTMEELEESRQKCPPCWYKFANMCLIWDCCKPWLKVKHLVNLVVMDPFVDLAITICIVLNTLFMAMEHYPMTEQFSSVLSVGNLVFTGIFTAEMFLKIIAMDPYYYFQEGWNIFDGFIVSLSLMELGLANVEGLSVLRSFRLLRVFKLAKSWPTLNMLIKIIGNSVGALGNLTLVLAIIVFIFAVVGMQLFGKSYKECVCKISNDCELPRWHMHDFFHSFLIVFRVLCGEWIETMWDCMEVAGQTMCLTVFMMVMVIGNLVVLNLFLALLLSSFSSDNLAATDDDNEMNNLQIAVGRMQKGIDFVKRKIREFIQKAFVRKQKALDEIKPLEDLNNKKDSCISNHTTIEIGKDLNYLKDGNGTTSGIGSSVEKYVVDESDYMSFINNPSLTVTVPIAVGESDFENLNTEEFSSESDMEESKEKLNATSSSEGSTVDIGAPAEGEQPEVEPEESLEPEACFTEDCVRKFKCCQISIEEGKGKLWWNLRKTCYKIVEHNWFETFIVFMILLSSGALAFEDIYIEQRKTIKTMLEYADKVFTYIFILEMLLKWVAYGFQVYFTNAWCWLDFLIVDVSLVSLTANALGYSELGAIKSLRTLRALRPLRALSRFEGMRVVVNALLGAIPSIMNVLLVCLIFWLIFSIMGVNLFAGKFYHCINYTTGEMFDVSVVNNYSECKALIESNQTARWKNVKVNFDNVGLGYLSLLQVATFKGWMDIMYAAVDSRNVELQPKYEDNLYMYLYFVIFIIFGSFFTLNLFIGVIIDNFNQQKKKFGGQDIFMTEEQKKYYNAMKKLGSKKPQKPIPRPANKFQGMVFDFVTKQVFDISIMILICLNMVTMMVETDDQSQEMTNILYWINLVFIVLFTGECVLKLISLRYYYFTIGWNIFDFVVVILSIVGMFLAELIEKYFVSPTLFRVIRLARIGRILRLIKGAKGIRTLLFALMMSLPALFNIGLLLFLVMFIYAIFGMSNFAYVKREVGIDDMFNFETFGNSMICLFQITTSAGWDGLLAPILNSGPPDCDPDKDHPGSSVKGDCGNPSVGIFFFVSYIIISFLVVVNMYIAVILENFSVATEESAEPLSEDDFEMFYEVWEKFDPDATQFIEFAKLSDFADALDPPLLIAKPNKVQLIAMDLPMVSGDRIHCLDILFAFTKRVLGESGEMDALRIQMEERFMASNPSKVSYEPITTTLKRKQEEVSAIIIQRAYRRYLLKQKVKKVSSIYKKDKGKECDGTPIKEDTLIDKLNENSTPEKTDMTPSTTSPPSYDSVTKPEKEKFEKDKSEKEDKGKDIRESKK
# cardiac voltage-gated potassium channel HERG, sequence (Q12809 whole entry): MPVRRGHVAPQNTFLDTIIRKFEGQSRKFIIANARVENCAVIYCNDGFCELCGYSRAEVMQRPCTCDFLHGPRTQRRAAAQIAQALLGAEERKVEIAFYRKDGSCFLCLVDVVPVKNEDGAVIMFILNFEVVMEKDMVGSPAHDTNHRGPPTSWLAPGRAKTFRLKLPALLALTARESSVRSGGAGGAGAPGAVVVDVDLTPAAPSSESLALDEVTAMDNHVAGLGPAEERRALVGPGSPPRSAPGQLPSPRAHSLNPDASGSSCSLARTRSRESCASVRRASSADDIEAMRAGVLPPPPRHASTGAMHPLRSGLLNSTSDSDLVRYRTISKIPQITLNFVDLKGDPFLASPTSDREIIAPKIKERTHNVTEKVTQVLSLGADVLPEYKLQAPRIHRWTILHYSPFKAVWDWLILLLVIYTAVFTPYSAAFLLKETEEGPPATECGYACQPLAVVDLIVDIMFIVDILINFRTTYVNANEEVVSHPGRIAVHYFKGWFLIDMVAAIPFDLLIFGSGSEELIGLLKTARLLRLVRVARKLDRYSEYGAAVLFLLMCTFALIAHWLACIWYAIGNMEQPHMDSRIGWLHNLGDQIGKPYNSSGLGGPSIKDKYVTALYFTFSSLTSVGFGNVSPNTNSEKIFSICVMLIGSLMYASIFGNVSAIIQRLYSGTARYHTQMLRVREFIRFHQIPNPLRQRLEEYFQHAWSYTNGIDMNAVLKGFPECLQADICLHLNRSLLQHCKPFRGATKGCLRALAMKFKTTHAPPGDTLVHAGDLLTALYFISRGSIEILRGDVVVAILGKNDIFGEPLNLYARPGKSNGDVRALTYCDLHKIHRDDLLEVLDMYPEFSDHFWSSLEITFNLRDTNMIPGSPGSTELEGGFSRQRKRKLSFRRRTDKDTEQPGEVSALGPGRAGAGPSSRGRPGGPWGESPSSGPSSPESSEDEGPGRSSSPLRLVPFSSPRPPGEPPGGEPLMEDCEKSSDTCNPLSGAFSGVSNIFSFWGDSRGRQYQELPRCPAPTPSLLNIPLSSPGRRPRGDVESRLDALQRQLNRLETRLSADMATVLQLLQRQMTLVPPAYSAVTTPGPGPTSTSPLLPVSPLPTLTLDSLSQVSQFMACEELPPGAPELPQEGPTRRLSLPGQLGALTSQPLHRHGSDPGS
compound,measurement,setting,value
"COc1ccccc1OCC(O)CN1CCN(CC(=O)Nc2c(C)cccc2C)CC1 (racemic) [Ranolazine, (±)-N-(2,6-dimethylphenyl)-4-[2-hydroxy-3-(2-methoxyphenoxy)-propyl]-1-piperazineacetamide]",Potency at inhibiting persistent current compared to use-dependent block of peak current,WT-Nav1.1,3.6 fold
same,Selectivity for tonic block of persistent current over peak current,WT-Nav1.1,approximately 16 fold
same,Tonic Block of Peak Current k (Hill slope),WT-Nav1.1,−0.84 ± 0.15
same,Tonic Block of Persistent Current k (Hill slope),WT-Nav1.1,−0.83 ± 0.06
same,Use-dependent block: loss of channel availability,WT-Nav1.1; [6],exaggerated loss of availability at all frequencies greater than 22 Hz
same,Effect on peak current density,WT-Nav1.1; 30 μM ranolazine,no significant effect
same,Shift of voltage-dependence of activation or inactivation,WT-Nav1.1; 30 μM ranolazine,did not significantly shift
same,Tonic block of peak current,WT-Nav1.1; 30 μM ranolazine,minimal
same,Use-dependent block: peak current during repetitive pulsing,"WT-Nav1.1; 30 μM ranolazine, 5 ms, −10 mV, 300 pulses, 10 Hz",caused a reduction in peak current during repetitive pulsing
same,Inactivation k (slope factor),"WT-Nav1.1; 30 μM ranolazine, fast inactivation",−8.0 ± 0.5 mV
same,Inactivation V1/2,"WT-Nav1.1; 30 μM ranolazine, fast inactivation, 100 ms prepulses",−64.2 ± 0.8 mV
same,Activation V1/2,"WT-Nav1.1; 30 μM ranolazine, n=10",−21.6 ± 0.8 mV
same,Activation k (slope factor),"WT-Nav1.1; 30 μM ranolazine, n=10",8.0 ± 0.2 mV
same,Use-Dependent Block of Peak Current k (Hill slope),WT-Nav1.1; 10 Hz train,−0.84 ± 0.05
same,IC50,WT-Nav1.1; [7],195 µM
same,IC50,WT-Nav1.1; [8],871 µM
same,IC50,WT-Nav1.1; [9],53.7 µM
same,Potency at inhibiting persistent current compared to use-dependent block of peak current,Nav1.1 R1648H,4.6 fold
same,Selectivity for tonic block of persistent current over peak current,Nav1.1 R1648H,approximately 16 fold
same,Tonic Block of Peak Current k (Hill slope),Nav1.1 R1648H,−1.00 ± 0.19
same,Tonic Block of Persistent Current k (Hill slope),Nav1.1 R1648H,−1.00 ± 0.09
same,"Charge conducted during slow depolarizing voltage ramp (−40 to 0 mV, normalized to peak current)","Nav1.1 R1648H; 3 μM ranolazine, 20 mV/s ramp",reduced the charge conducted by R1648H to the level observed in cells expressing WT channels recorded in the absence of drug
same,Use-dependent block: loss of channel availability,Nav1.1 R1648H; [6],exaggerated loss of availability at all frequencies greater than 22 Hz
same,Effect on persistent current,Nav1.1 R1648H; 30 μM ranolazine,substantially reduced
same,Tonic block of peak current,Nav1.1 R1648H; 30 μM ranolazine,minimal tonic block
same,Use-Dependent Block of Peak Current k (Hill slope),Nav1.1 R1648H; 10 Hz train,−0.88 ± 0.03
same,IC50,Nav1.1 R1648H; [7],138 µM
same,IC50,Nav1.1 R1648H; [8],490 µM
same,IC50,Nav1.1 R1648H; [9],30.2 µM
same,Use-dependent block: channel availability by the 300th pulse,"[1]; 30 μM ranolazine, WT-Nav1.1 and mutant channels, 10 Hz",significant loss of channel availability
same,Block of persistent current compared to peak current,"[1]; 30 μM ranolazine, all mutants, tonic block",much greater degree of ranolazine block of persistent current as compared to peak current
same,Use-dependent reduction in channel availability compared to WT-Nav1.1,"[1]; 30 μM ranolazine, mutants R1648H, T875M and R1648C",significantly greater reduction in channel availability
same,Level of persistent current in presence of ranolazine versus WT-Nav1.1 without drug,"[1]; 30 μM ranolazine, mutants R1648H, T875M, L263V",not significantly different from WT-Nav1.1 channels in the absence of drug
same,Greater inhibition of persistent current compared to tonic block of peak current,[1]; [10],16 fold
same,Greater inhibition of persistent current compared to use-dependent block of peak current,[1]; [10],5 fold
same,Feasible brain concentration,[2]; extrapolated from therapeutic plasma concentration 2-10 μM,up to 3.3 μM
same,Kp at 1 h,"[2]; male, Sprague Dawley, brain, iv, rat, i.v. infusion 85.5 μg/kg/min, 1 h, read-out: Brain/Plasma",0.38
same,Kp at 2.5 h,"[2]; male, Sprague Dawley, brain, iv, rat, i.v. infusion 85.5 μg/kg/min, 2.5 h, read-out: Brain/Plasma",0.38
same,Kp at 5 h,"[2]; male, Sprague Dawley, brain, iv, rat, i.v. infusion 85.5 μg/kg/min, 5 h, read-out: Brain/Plasma",0.3
same,concentration at 1 h,"[2]; male, Sprague Dawley, rat, brain, iv, Brain (molar), rat, i.v. infusion 85.5 μg/kg/min, 1 h, heading: Brain",700 nM
same,concentration at 2.5 h,"[2]; male, Sprague Dawley, rat, brain, iv, Brain (molar), rat, i.v. infusion 85.5 μg/kg/min, 2.5 h, heading: Brain",1040 nM
same,concentration at 1 h,"[2]; male, Sprague Dawley, rat, brain, iv, rat, i.v. infusion 85.5 μg/kg/min, 1 h, read-out: Brain",298 ± 88.6 ng/g
same,concentration at 2.5 h,"[2]; male, Sprague Dawley, rat, brain, iv, rat, i.v. infusion 85.5 μg/kg/min, 2.5 h, read-out: Brain",446 ± 302 ng/g
same,concentration at 5 h,"[2]; male, Sprague Dawley, rat, brain, iv, rat, i.v. infusion 85.5 μg/kg/min, 5 h, read-out: Brain",470 ± 300 ng/g
same,concentration at 1 h,"[2]; male, Sprague Dawley, rat, plasma, iv, rat, i.v. infusion 85.5 μg/kg/min, 1 h, read-out: Plasma",777 ± 255 ng/mL
same,concentration at 2.5 h,"[2]; male, Sprague Dawley, rat, plasma, iv, rat, i.v. infusion 85.5 μg/kg/min, 2.5 h, read-out: Plasma",1180 ± 456 ng/mL
same,concentration at 5 h,"[2]; male, Sprague Dawley, rat, plasma, iv, rat, i.v. infusion 85.5 μg/kg/min, 5 h, heading: Plasma, read-out: Plasma",3.72 µM
same,concentration at 5 h,"[2]; male, Sprague Dawley, rat, plasma, iv, rat, i.v. infusion 85.5 μg/kg/min, 5 h, read-out: Plasma",1590 ± 488 ng/mL
same,Brain penetration,"[2]; rat, all time points (1, 2.5, 5 h)",significant brain penetration
same,Brain,"[2]; rat, i.v. infusion 85.5 μg/kg/min, 5 h",470 ng/g
same,Mean brain levels as fraction of corresponding plasma levels,"[2]; rat, throughout the time course 1-5 h",approximately one third
same,Inhibition of WT-Nav1.2,WT-Nav1.2,has the ability to inhibit WT-Nav1.2
same,Association rate kon,Nav1.4,8.2 µM⁻¹ s⁻¹
same,Usual therapeutic plasma concentration,[3],2 to 10 µM
same,Block of HERG,[4],blocks
same,Tolerability,[5],well tolerated
